Key:
Type in all cases: in vivo, human
[1] = tested on: male MS patients with erectile dysfunction; assay: Sexual function in male MS patients with erectile dysfunction; conditions: Example Six
From the text: Two male MS patients, a person and a person, experienced decreased libido, decreased penile sensation, and erectile dysfunction. […] These improvements in sexual function have persisted while continuing on the treatment. […] Their ability to achieve a full erection numerous times following repeated ejaculations was restored the same day that they resumed the treatment.

patients = assay: Transdermal dosage range and regimen observations in patients
Protocol: As will be described in the following examples, dosages in the range from about 0.1 mcg to about 0.2 mcg per day have been found generally preferable, with some variation on a patient by patient basis. […] While the mechanism behind this is not fully understood, it is believed that the effectiveness of the periodic regimen, with a resting period of about 48 hours between applications, may be due to an associated half life period (within the body of the patient) of the material or an agent that is produced by the material.

fibromyalgia patient = assay: Treatment of fibromyalgia patient via transdermal patch; conditions: Example Five
From the text: (§1) Accordingly, material suitable for transdermal application can be prepared using a 1:1000 dilution of methyl 4-imidazolecarboxylate CAS number 17325-26-7, available from Sigma-Aldrich Corporation), combined with a pluronic lecithin organogel transdermal penetration enhancing vehicle, with hydrochloric acid being added to maintain the pH of the solution that or below 3. The resultant mixture may be dried and deposited on or applied to a suitable adhesive backing to form a transdermal patch, covered with quick release paper or other layer for protection prior to use.
A person who has been suffering from fibromyalgia for 10 years was treated in accordance with the method of the present invention. […] The patient has reported only two incidences of increased fatigue, which lasted only one day per incidence, and these incidences were preceded by very stressful life events.

[2] = tested on: patient with major clinical depression; assay: Treatment of patient with major clinical depression via transdermal patch; conditions: Example Seven
Protocol: A person with a family history of depression and has a personal history of major clinical depression. Hospitalized in 1975 and again in 1990 with major episodes of depression including extreme suicidal ideations. Numerous medications were tried to help stabilize their condition. Since 1990 they have been taking 25 mg to 75 mg of nortriptyline to manage their depression and reports having to increase the dose to has high as 100 mg during stressful life events.
The patient reported suffering from the following symptoms despite taking nortriptyline:
They also reported very vivid dreams and they were able to recall the details of their dreams easily. […] Their constipation and dry mouth have resolved as well. They also have reported that their hair is regaining its original pigment and that their eyebrows are coming in darker and thicker resembling their younger years.

[3] = tested on: multiple sclerosis (MS) patients; assay: Treatment of multiple sclerosis patients via transdermal patch; conditions: for outcome on MS symptoms with cyclic dosing schedule: repeated
From the text: as §1
The following illustrative examples relate to actual practice of the invention described above in the treatment of multiple sclerosis.
A person who had been suffering from multiple sclerosis (MS) for 51 years was treated in accordance with the method of the present invention. The patient suffered from debilitating intention tremors in their hands, poor balance, garbled speech, right foot tingling and right leg weakness, left foot tingling and weakness. Within 60 minutes of applying the first dose of 0.125 mcg methyl 4-imidazolecarboxylate via transdermal patch application, the intention tremors were alleviated, but noted some waxing and waning of other symptoms throughout the first day of treatment. […] After the third consecutive day of treatment, the patient had no symptoms of MS and they were able to remain free of symptoms for the next 36 hours without applying the treatment of the present invention. After 36 hours of not administering the treatment, they reported that their MS symptoms were returning, they then applied 0.125 mcg methyl 4-imidazolecarboxylate via transdermal patch and their MS symptoms were alleviated within 30 minutes of applying the treatment. They administered 0.125 mcg methyl 4-imidazolecarboxylate per day for next 2 consecutive days and was again able to remain free of all of the MS symptoms while wearing the transdermal patch containing the treatment dose and then remained free of symptoms for the following 2 days not administering the treatment.
A person who has been suffering from multiple sclerosis (MS) for 21 years was treated in accordance with the method of the present invention. The patient suffered from left foot tingling and numbness, left hand tingling and numbness, left leg weakness, slurred speech, cognitive impairment, fatigue, facial/jaw pain, and heaviness in limbs. […] The patient remained free of all MS symptoms with the administration of 0.15 mcg methyl 4-imidazolecarboxylate per day for the next two consecutive days. The patient was able to remain free of MS symptoms for 36 hours following the two consecutive days of application of present invention without use of treatment. After 36 hours of not using the present invention treatment, the patient experienced left foot tingling. The patient then applied 0.15 mcg methyl 4-imidazolecarboxylate per day via transdermal patch for two consecutive days and all MS symptoms alleviated. The patient was able to remain free of all MS symptoms for the next 4 days without applying the present invention treatment. […] The following 5 days the patient remained free of all MS symptoms without administering treatment of present invention.
Each patient has continued to maintain such improvements in their symptoms of MS by applying 0.2 mcg methyl 4-imidazolecarboxylate via transdermal patch for one day followed by two consecutive days without administering treatment and then repeating such dosing schedule.

[4] = tested on: multiple sclerosis (MS) patients; assay: as above; conditions: Example Three, four MS patients (2 female, 2 male), 0.2 mcg transdermal patch one day, two days off, repeated
[5] = 0.2 mcg transdermal patch one day on, two days off

COC(=O)c1cnc[nH]1 [methyl 4-imidazolecarboxylate]
effect of stopping the treatment for one week ([1]; patient, restored the same day treatment resumed): decrease in libido and inability in achieving a full erection
time to achieve a full erection after first ejaculation ([1]; two male MS patients, 0.2 mcg): 1 to 3 min
patient-reported sexual function within three days of first administration ([1]; two male MS patients, 0.2 mcg (entry two)): increased libido, full erections, increased penile sensation
effectiveness of periodic regimen (patients; approximately 0.2 mcg once every three days): especially effective for the majority of patients
adverse effect at high dosages (patients; transdermal, dosages above approximately 3.0 mcg per day): negative cognitive effects, in a form of mental haziness or sleepiness
effect observed at low dosages (patients; transdermal, dosages below about 0.01 mcg per day): negligible effect
maintained outcome with cyclic dosing schedule (fibromyalgia patient; [5]): remained free of pain, and improved mental clarity
incidences of increased fatigue during treatment (fibromyalgia patient; each lasting one day, preceded by very stressful life events): two
patient-reported effect within hours of first dose (fibromyalgia patient; person with fibromyalgia, first dose 0.2 mcg): decreased pain, decreased fatigue and improved mental clarity
symptoms of depression while continuing on the treatment [2, 5]: remained free of all symptoms of depression
patient-reported effect the first day of treatment ([2]; person, 0.2 mcg): increased energy
MS symptoms by the second day of treatment ([3]; Example One, 0.125 mcg per day, transdermal patch): All MS symptoms were alleviated
time to alleviation of returned MS symptoms after re-applying treatment ([3]; Example One, 0.125 mcg transdermal patch after 36 hours without treatment): ≤ 30 min
outcome on MS symptoms with cyclic dosing schedule ([3]; Example One, 0.2 mcg one day followed by 2 consecutive days without treatment): successfully alleviated all of the MS symptoms
time to alleviation of intention tremors after first dose ([3]; Example One, MS patient, first dose 0.125 mcg, transdermal patch): ≤ 60 min
time free of symptoms not administering the treatment ([3]; Example One, after re-application and 2 further consecutive days of 0.125 mcg per day): 2 days
time free of symptoms without applying the treatment ([3]; Example One, after third consecutive day of 0.125 mcg treatment): 36 h
effect on returned left foot tingling after single application ([3]; Example Two, 0.15 mcg transdermal patch on fifth day without treatment): symptoms resolved immediately
outcome on MS symptoms with cyclic dosing schedule ([3]; Example Two, 0.2 mcg transdermal patch one day, 2 consecutive days without treatment): continued to remain free of all MS symptoms
time to alleviation of all MS symptoms after first dose ([3]; Example Two, MS patient, first dose 0.15 mcg, transdermal patch): ≤ 30 min
time free of all MS symptoms without applying treatment ([3]; Example Two, after second course of 0.15 mcg per day for two consecutive days): 4 days
time free of MS symptoms without use of treatment ([3]; Example Two, following first dose and two consecutive days of 0.15 mcg per day): 36 h
time free of all MS symptoms without administering treatment ([3]; Example Two, following single 0.15 mcg application): 5 days
patient-reported change in MS symptoms (bladder function, fatigue, tingling and numbness, balance, cognition and memory, walking, sleep) [4]: improvement in their MS symptoms

CNCCC=C1c2ccccc2CCc2ccccc21 [nortriptyline, reference compound]
patient-reported side effects ([2]; 25 mg to 75 mg (up to 100 mg) nortriptyline since 1990): dry mouth and constipation
